Measured values: patent US10294217B2, “Fluoroindole derivatives as muscarinic M1 receptor positive allosteric modulators” (Suven Life Sciences Limited, priority 2015, dated 2019)
Read-outs that look alike come from different tables or passages of the source.

What was measured:
[1] = Protein binding assay (HT dialysis), human matrices; type: in vitro ADME; conditions: Mean ± SEM
Method: (§1) Unbound fractions of new chemical entities in plasma, brain homogenate and liver microsomes were determined using high-throughput dialysis (HT dialysis). Briefly, dialysis membranes were soaked in deionized water for 20 minutes and then in deionized water with 30% ethanol for 15 minutes and finally in phosphate buffer until use. Membranes were rinsed in phosphate buffer before assembling. The membranes were layered between teflon bars of dialysis assembly. Stock solutions of test compounds were prepared at 10 mM in DMSO, diluted to 1 mM in acetonitrile and further diluted to 100 μM in mixture of water and acetonitrile (1:1 v/v). Human plasma (pool of 3) was prepared from human blood (3 donors) by centrifuging at 4000 rpm for 10 min at 4° C. Rat and dog blood were obtained on the day of the study and centrifuged to obtain plasma. Rat brains were isolated, cleaned and homogenized with 2 volumes of buffer (3 fold dilution). Liver microsomes were prepared at 0.5 mg/mL in phosphate buffer (100 mM, pH 7.4). The dialysate chambers were loaded with 150 μL of 100 mM phosphate buffer (pH 7.4) in triplicates. The matrix chambers were loaded with 150 μL of the plasma or brain homogenate or microsomal suspension spiked with test compounds at a final concentration of 1 μM. 50 μL of the sample was removed from both the chambers at 0 h. The plate was sealed and incubated at 37° C. for 6 h at 100 rpm. After 6 h, 50 μL of the sample was removed from both the chambers. Equal volumes of buffer or human plasma/microsomal suspension were added to the plasma/microsomal and buffer samples respectively to create identical sample matrices for analysis. The samples were precipitated with 150 μL of acetonitrile containing fluoxetine as an internal standard. All the samples were centrifuged at 10000 rpm for 10 minutes at 4° C.

[2] = tested on: Male Wistar rats; test: Object recognition task model; type: in vivo; conditions: 3 mg/kg, p.o.
Method: Object Recognition Task Model
The cognition enhancing properties of compounds of this invention were estimated by using this model.
Male Wistar rats (8-10 weeks old) were used as experimental animals. Four animals were housed in each cage. Animals were kept on 20% food deprivation from a day prior to experimentation. Water was provided ad libitum throughout the experiment. Animals were maintained on a 12 hours light/dark cycle in temperature and humidity controlled room. The experiment was carried out in an open field made up of acrylic. Rats were habituated to individual arenas (open field) for 1 hour in the absence of any objects on day 1.
One group of 12 rats received vehicle and another set of animals received compound of the formula (I), before the familiar (T1) and choice (T2) trials. During the familiarization phase, (T1), the rats were placed individually in the arena for 3 minutes, in which two identical objects (a1 and a2) were positioned 10 cm from the wall. 24 hours after T1, trial for long-term memory test was performed. The same rats were placed in the same arena as they were placed in T1 trial. During the choice phase (T2) rats were allowed to explore the arena for 3 minutes in presence of a copy of familiar object (a3) and one novel object (b). During the T1 and T2 trial, explorations of each object (defined as sniffing, licking, chewing or having moving vibrissae whilst directing the nose towards the object at a distance of less than 1 cm) were recorded using stopwatch. • T1 is the total time spent exploring the familiar objects (a1+a2). • T2 is the total time spent exploring the familiar object and novel object (a3+b). • Discriminative index=Time spent with novel object/(time spent with novel and familiar object).
The object recognition test was performed as described by Behavioural Brain Research, 1988, 31, 47-59 and the results are provided in table 5.

[3] = Rodent brain penetration study; type: in vivo, Male Wistar rats; conditions: male, Wistar, rat, oral; 3 mg/kg, p.o.; brain-plasma ratio; read-out: Single dose Rat Brain Penetration (Cb/Cp)
Method: WO2015044072A1 patent application discloses indole derivatives as M1 PAM compounds. […] This makes these compounds less ideal for the treatment of CNS disorders.
Rodent Brain Penetration Study
Male Wistar rats (260±40 grams) were used as experimental animals. Three animals were housed in each cage. Animals were given water and food ad libitum throughout the experiment and maintained on a 12 hours light/dark cycle.
Brain penetration was determined in discrete manner in rats. One day prior to dosing day, male Wistar rats were acclimatized and randomly grouped according to their weight. At each time point (0.5, 1 and 2 hours) n=3 animals were used.
The test compounds were suitably preformulated and administered orally at (free base equivalent) 3 mg/kg. Blood samples were removed via cardiac puncture by using isoflurane anesthesia. The animals were sacrificed to collect brain tissue. Plasma was separated and brain samples were homogenized and stored frozen at ˜20° C. until analysis. The concentrations of the test compounds in plasma and brain were determined using LC-MS/MS method.
The test compounds were quantified in plasma and brain homogenate by qualified LC-MS/MS method using suitable extraction technique. The test compounds were quantified in the calibration range of 1-500 ng/mL in plasma and brain homogenate. Study samples were analyzed using calibration samples in the batch and quality control samples spread across the batch.

[4] = Protein binding assay (HT dialysis), dog matrices; type: in vitro ADME; conditions: Mean ± SEM
Method: as §1

[5] = Protein binding assay (HT dialysis), rat matrices; type: in vitro ADME; conditions: Mean ± SEM
Method: as §1

[6] = molecular target: human Muscarinic M1 receptor (Homo sapiens (Human), UniProt P11229); test: Allosteric potency EC50 for muscarinic M1 receptor (CHO cells, pCRE-Luc reporter); type: cell-based; conditions: in presence of EC20 of acetylcholine; luciferase activity, 4 hours; read-out: hM1 PAM EC50
Method: Determination of Allosteric Potency EC50 Values for Muscarinic M1 Receptor:
A stable CHO cell line expressing recombinant human Muscarinic M1 receptor and pCRE-Luc reporter system was used for cell-based assay. The assay offers a non-radioactive based approach to determine binding of a compound to GPCRs. In this specific assay, the level of intracellular cyclic AMP which is modulated by activation or inhibition of the receptor is measured. The recombinant cells harbor luciferase reporter gene under the control of cAMP response element.
The above cells were grown in 96 well clear bottom white plates in Hams F12 medium containing 10% fetal bovine serum (FBS). Prior to the addition of compounds or standard agonist, cells were serum starved overnight. Increasing concentrations of test compounds were added along with EC20 of acetylcholine in OptiMEM medium to the cells. The incubation was continued at 37° C. in CO2 incubator for 4 hours. Medium was removed and cells were washed with phosphate buffered saline. The cells were lysed and luciferase activity was measured in a Luminometer. Luminescence units were plotted against the compound concentrations using Graphpad software. EC50 values of the compounds were defined as the concentration required in stimulating the luciferase activity by 50% in presence of EC20 of acetylcholine and the results are provided in table 1.

[7] = Rodent pharmacokinetic study; type: in vivo, Male Wistar rats; conditions: male, Wistar
Method: Rodent Pharmacokinetic Study
Male Wistar rats (260±50 grams) were used as experimental animals. Animals were housed individually in polypropylene cage. Two days prior to study, male Wistar rats were anesthetized with isoflurane for surgical placement of jugular vein catheter. Rats were randomly divided for oral (3 mg/kg) and intravenous (i.v.) (1 mg/kg) dosing (n=3/group) and fasted overnight before oral dosing (p.o.). However, rats allocated to intravenous dosing food and water was provided ad libitum.
At pre-determined point, blood was collected through jugular vein and replenished with an equivalent volume of normal saline. Collected blood was transferred into a labeled eppendorf tube containing 10 μL of heparin as an anticoagulant. Typically blood samples were collected at following time points: 0.08, 0.25, 0.5, 1, 2, 4, 6, 8, and 24 hours post dose. Blood was centrifuged at 4000 rpm for 10 minutes. Plasma was separated and stored frozen at −80° C. until analysis. The concentrations of the test compounds were quantified in plasma by qualified LC-MS/MS method using suitable extraction technique. The test compounds were quantified in the calibration range around 1-1000 ng/mL in plasma. Study samples were analyzed using calibration samples in the batch and quality control samples spread across the batch.
Pharmacokinetic parameters Cmax, AUCt, T1/2, Clearance, and Bioavailability (% F) were calculated by non-compartmental model using standard non-compartmental model by using Phoenix WinNonlin 6.0.2 or 6.0.3 version Software package and the results are tabulated in table 3.

[8] = cited from earlier work
[9] = molecular target: M1 (Homo sapiens (Human), UniProt P11229); conditions: cited from earlier work
[10] = cited from earlier work; remark: listed apart in the source
[11] = mean ± S.E.M, choice trial 24 hours after T1

## O=C(N[C@H]1CCCC[C@@H]1O)c1cn(Cc2ccnc(Cl)c2)c2c(F)ccc(F)c12 [Example 6, N-[(1S,2S)-2-Hydroxycyclohexyl]-1-(2-Chloropyridin-4-ylmethyl)-4,7-difluoro-1H-indole-3-carboxamide]
[1]; pH 7.4, Human liver microsomes 0.5 mg/mL, n = 3, read-out: Fu Microsomes
  fraction unbound at 6 h, 1 μM: 0.546 ± 0.018
[1]; pH 7.4, Human plasma, 37° C., n = 3, read-out: Fu Plasma
  fraction unbound at 6 h, 1 μM: 0.03 ± 0.003
[2]
  Inference: Active
[2]; [11]
  Exploration time Familiar object: 15.75 ± 1.71 s
  Exploration time Novel object: 23.67 ± 2.62 s
[3]
  Kp: 2.09 ± 0.46
[4]; pH 7.4, Dog liver microsomes 0.5 mg/mL, n = 3, read-out: Fu Microsomes
  fraction unbound at 6 h, 1 μM: 0.713 ± 0.041
[4]; pH 7.4, Dog plasma, 37° C., n = 3, read-out: Fu Plasma
  fraction unbound at 6 h, 1 μM: 0.043 ± 0.002
[5]; pH 7.4, Rat brain homogenate, 37° C., n = 3, read-out: Fu Brain
  fraction unbound at 6 h, 1 μM: 0.014 ± 0.001
[5]; pH 7.4, Rat liver microsomes 0.5 mg/mL, n = 3, read-out: Fu Microsomes
  fraction unbound at 6 h, 1 μM: 0.56 ± 0.048
[5]; pH 7.4, Rat plasma, 37° C., n = 3, read-out: Fu Plasma
  fraction unbound at 6 h, 1 μM: 0.05 ± 0.008
[6]
  EC50: 122 nM

## O=C(N[C@H]1CCCC[C@@H]1O)c1cn(Cc2ccncc2F)c2c(F)ccc(F)c12 [Example 10, N-[(1S,2S)-2-Hydroxycyclohexyl]-1-(5-fluoropyridin-4-ylmethyl)-4,7-difluoro-1H-indole-3-carboxamide]
[3]
  Kp: 2.4 ± 0.3
[6]
  EC50: 940 nM

## O=C(N[C@H]1CCCC[C@@H]1O)c1cn(Cc2cc(F)ncc2F)c2cccc(F)c12 [Example 11, N-[(1S,2S)-2-Hydroxycyclohexyl]-1-(2,5-difluoropyridin-4-ylmethyl)-4-fluoro-1H-indole-3-carboxamide]
[3]
  Kp: 1.59 ± 0.35
[6]
  EC50: 1530 nM

## O=C(N[C@H]1CCCC[C@@H]1O)c1cn(Cc2cc(F)ncc2F)c2c(F)ccc(F)c12 [Example 12, N-[(1S,2S)-2-Hydroxycyclohexyl]-1-(2,5-difluoropyridin-4-ylmethyl)-4,7-difluoro-1H-indole-3-carboxamide]
[3]
  Kp: 1.64 ± 0.12
[6]
  EC50: 432 nM
[7]; iv, 1 mg/kg, rat plasma
  AUC(0-t): 609 ± 62 ng·h/mL
  half-life: 1.6 ± 0.5 h
[7]; plasma, iv, 1 mg/kg, rat
  clearance: 26.7 ± 3.4 mL/min/kg
[7]; plasma, oral 3 mg/kg vs i.v. 1 mg/kg, rat, read-out: % F (Bioavailability)
  bioavailability: 62 ± 6%
[7]; oral, 3 mg/kg, rat plasma
  AUC(0-t): 1140 ± 114 ng·h/mL
  Cmax: 337 ± 141 ng/mL
  half-life: 3 ± 3 h

## N#CC1(c2ccccn2)CCN(Cc2cc(C(=O)O)c(=O)n3ccccc23)CC1 [PQCA, 1-{[4-cyano-4-(pyridine-2-yl)piperidin-1-yl]methyl}-4-oxo-4H-quinolizine-3-carboxylic acid]
[8]; at doses equal to or less than a fivefold margin from the minimum effective dose required to improve cognition
  gastrointestinal side effects: no gastrointestinal side effects
[8]; several preclinical models of cognition
  efficacy in preclinical models of cognition: efficacious
[9]
  selectivity for M1 over the other muscarinic receptor subtypes: highly selective

## CCCCCCOc1nsnc1C1=CCCN(C)C1 [Xanomeline]
[10]; clinical Alzheimer's disease (AD) trial
  effects on cognition: significant effects on cognition
[10]; clinical trials
  gastrointestinal side effects: gastrointestinal side effects led to a high dropout rate
